“Also recorded” adds a separate entry of the source. Values belong to the molecule of their own block, whether it stands above or below them.
Assays:
ACC2 = biological target: T1, ACC2 (Homo sapiens, UniProt O00763); assay: ACC activity assay in 293T cell lysates; format: biochemical; settings: lysates overexpressing ACC2; citrate 2 mM
T1 construct: expressed in transfected cells; host or cells: 293T cells, whole-cell lysate (50 ug protein per reaction)
Experimental: ACC activity assay. Reactions were performed as previously described, with the exception of using 16.7 mM MgCl2 instead. 50 μg protein lysate was used for each reaction. Following addition of 1 N HCl to quench reactions and convert remaining [^14C]bicarbonate (American Radiolabeled Chemicals) to CO2, reactions were evaporated 2 hours at 600 and 15 min at 850 in a thermo shaker. ACC activity was calculated as incorporation of [^14C]bicarbonate into [^14C]malonyl CoA (the acid and heat stable product) as measured by scintillation counting.

K562 leukemia cells = assay: Leukemia cell viability by PI staining after 96 hr drug treatment; format: cell-based, human; settings: high-PHD3 CML line, 96 hr treatment, ranolazine 0-500 μM or etomoxir 0-200 μM
Experimental: (§1) Drug treatment and PI staining. Cells were treated 96 hr with a range of doses of etomoxir (Cayman Chemical) or ranolazine dihydrochloride (VWR/Selleck Chemicals) or vehicle. Fresh etomoxir was spiked in at 24, 48 and 72 hr. Fresh ranolazine was spiked in at 48 hr. Dosing schedules were determined by identifying the minimum number of times drug must be re-added to observe an effect on cell viability. Cell viability at 96 hr was determined by staining cells with 1 µg/ml propidium iodide (Sigma) in PBS and flow cytometry on the BD LSR-II analyzer.

MEGO1 = assay: as above; format: cell-based, human; settings: high-PHD3 CML cell line, high dose of ranolazine, compared to low-PHD3 AML cells
Experimental: as §1

low-PHD3 leukemia cells = assay: as above; format: cell-based, human; settings: 96 hr treatment, ranolazine 0-500 μM or etomoxir 0-200 μM
Experimental: as §1

293T cells = assay: Palmitate oxidation (FAO assay); format: cell-based, human; settings: low glucose, serum-free medium supplemented 5 mM for 6 h; PHD3-dependent
Experimental: FIG. 10C is a photograph of an immunoblot showing 293T cells stably expressing shRNA against PHD3 or non-targeting control were incubated 12 h in high or low nutrient media prior to analyzing ACC hydroxylation by IP and immunoblot. FIG. 10D is a photograph of an immunoblot showing ACC hydroxylation dynamically responds to cellular nutrient cues. WT immortalized MEFs were incubated in high (4.5 g/L glucose DMEM with serum) or low (1 g/L glucose DMEM without serum) nutrient medium for 6 h, or in low nutrient medium for 6 h followed by adding back high nutrient medium for 5 or 10 min. ACC was immunoprecipitated in lysis buffer containing the PHD inhibitor DMOG (1 mM) to minimize further hydroxylation in the lysis buffer. Hydroxylation was detected by immunoblot. FIG. 10E is a bar graph showing the impact of PHD3 knockdown on the ability of immortalized MEFs to modulate palmitate oxidation levels in response to low or high nutrient medium (n=3). […] FIG. 10G is a bar graph showing short, medium and long chain acylcarnitine levels as measured by metabolomics analysis of 293T cells grown in high nutrient medium following stable knockdown with shRNA against PHD3 or control. […]

KU812 = assay: Leukemia cell viability by PI staining after 96 hr drug treatment; format: cell-based, human; settings: low-PHD3 CML cell line; 96 hr treatment with etomoxir
Experimental: as §1

HepG2 cells = assay: Palmitate oxidation (FAO assay); format: cell-based, human; settings: etomoxir 100 μM during the 2 h FAO assay; figure printed for PHD3 overexpression, etomoxir stated to achieve a similar level
Experimental: Fatty acid oxidation. For FAO assays, cells in 12 well-plates were pre-incubated with 100 µM palmitate or hexanoate and 1 mM carnitine for 4 hr in serum-free low glucose media, unless otherwise noted. Cells were then changed to 600 l media containing 1 μCi [9,10(n)-^3H]palmitic acid (GE Healthcare) or 1.8 μCi n-[5,6-^3H]hexanoic acid (American Radiolabeled Chemicals) and 1 mM carnitine for 2 hr. The medium was collected and eluted in columns packed with DOWEX 1X2-400 ion exchange resin (Sigma) to analyze the released ^3H20, formed during oxidation of [3H]palmitate. FAO in complete media indicates media including serum was used for pre-incubation and FAO analysis. Basal FAO indicates cells were not pre-incubated with fatty acids prior to FAO analysis. For all FAO experiments, counts per minute (CPM) were normalized to protein content in cell lysates.

recombinant PHD3 = recombinant PHD3 (Homo sapiens, UniProt Q9H6Z9); assay: In vitro hydroxylation assay with ACC2 peptides; format: biochemical; settings: 12.5 nmol synthetic peptide; radioactivity-based, [14C]CO2 release
Experimental: In vitro hydroxylation assay. The in vitro hydroxylation assay was modified from a previously described assay based on the fact that hydroxylation by PHDs results in decarboxylation of […]-ketoglutarate to form carbon dioxide. Briefly, […] reactions were performed in glass vials sealed with rubber stoppers and parafilm wax. Reaction mixtures containing 12.5 nmol synthetic peptide (Peptide 2.0), 50 mM Tris/HCl (pH 7.8), 2 mg/ml BSA, 4200 U/ml catalase, 0.1 mM DTT, 2 mM ascorbate, 500 μM FeSO4·7H2O, 0.02 μmol [1-^14C][…]-ketoglutarate (Perkin Elmer) and 1.2 μg recombinant PHD3 were incubated at 370 for 30 min. Reactions were stopped by injection of 0.25 ml of 1 M KH2PO4 (pH 5) into vials. Vials were agitated on slow speed for 30 min at room temperature to allow capture of [^14C]CO2 onto solubilized Whatman paper positioned at the top of the vials. CPM were measured by scintillation counts on filter paper.

MOLM14 cells [1] = assay: Palmitate oxidation (FAO assay); format: cell-based, human; settings: S2E 50 μM for 3 days; 3 h incubation with radiolabeled palmitate
Experimental: FIG. 15 includes 10 panels, FIGS. 15A-J, showing PHD3 modulation in leukemia cell lines. FIG. 15A, PHD3 expression in MOLM14 and THP1 cells following stable overexpression of vector or PHD3 (n=3). FIG. 15B, Palmitate oxidation in HepG2 cells treated with etomoxir during the 2 h FAO assay (100 μM, n=3). FIG. 15C and FIG. 15D, PHD3 expression and growth curves in K562 cells following stable overexpression of PHD3 or vector (n=3). FIG. 15E, Growth curves of K562 cells stably expressing shRNA against PHD3 or control (n=3). FIG. 15F, Colony formation assay with K562 cells stably expressing shRNA against PHD3 or non-silencing control. Colony forming units (CFU) were counted 10 days after plating (n=2). FIG. 15G, Representative images from colony formation assays with K562 cells stably expressing shRNA against PHD3 or non-silencing control. Colonies were imaged on day 10 using an inverted microscope (Nikon Eclipse Ti-U) at 200× magnification and SPOT camera software 5.0. […] MOLM14 cells were incubated with S2E (50 μM) or vehicle for 3 days. FAO was measured following 3 h incubation with radiolabeled palmitate in the presence of S2E or vehicle. FIG. 151, PHD3 expression in MOLM14 cells following stable overexpression of vector or PHD3 (n=3). […]

MOLM14 cells [2] = assay: Cell growth (cell counting at 72 h) following PHD3 overexpression; format: cell-based, human; settings: PHD3-overexpressing MOLM14; S2E 50 μM or metformin 1 mM
Source text: FIG. 12B, Growth curves of MOLM14 and THP1 cells stably overexpressing vector or PHD3 (n=3). FIG. 12C, ATP CellTiter-Glo analysis in MOLM14 and THP1 cells stably overexpressing vector or PHD3 (n=4). FIG. 12D, Colony formation assay with MOLM14 and THP1 cells stably overexpressing vector or PHD3. Colony forming units (CFU) were counted 8 days after plating MOLM14 and 20 days after plating THP1 (n=3). FIG. 12E, Representative images from colony formation assays with MOLM14 or THP1 cells stably overexpressing vector or PHD3. MOLM14 colonies were imaged on day 8 and THP1 colonies imaged on day 20 using an inverted microscope (Nikon Eclipse Ti-U) at 200× magnification and SPOT camera software 5.0. FIG. 12F, Immunoblot showing HA-PHD3 overexpression in K562 cells. FIG. 12G and FIG. 12H, Colony formation assay and representative images from K562 cells stably expressing PHD3 or vector. CFU were counted and imaged 10 days after plating (n=3). […] Following FACS to collect PI-negative cells, 8000 cells were plated per well of a 96-well plate, and cell number at 72 h was determined by cell counting (n=3). […] Colony formation was assessed in MOLM14 cells stably overexpressing vector or PHD3 in the presence or absence of metformin (Met, 1 mM). CFU were counted 8 days after plating (n=2). […]

MOLM14 cells [3] = assay: Colony formation assay (soft agar); format: cell-based, human; settings: for colony formation (growth): PHD3-overexpressing MOLM14, metformin 1 mM, CFU counted 8 days after plating
Source text: FIG. 12B, Growth curves of MOLM14 and THP1 cells stably overexpressing vector or PHD3 (n=3). FIG. 12C, ATP CellTiter-Glo analysis in MOLM14 and THP1 cells stably overexpressing vector or PHD3 (n=4). FIG. 12D, Colony formation assay with MOLM14 and THP1 cells stably overexpressing vector or PHD3. Colony forming units (CFU) were counted 8 days after plating MOLM14 and 20 days after plating THP1 (n=3). FIG. 12E, Representative images from colony formation assays with MOLM14 or THP1 cells stably overexpressing vector or PHD3. MOLM14 colonies were imaged on day 8 and THP1 colonies imaged on day 20 using an inverted microscope (Nikon Eclipse Ti-U) at 200× magnification and SPOT camera software 5.0. FIG. 12F, Immunoblot showing HA-PHD3 overexpression in K562 cells. FIG. 12G and FIG. 12H, Colony formation assay and representative images from K562 cells stably expressing PHD3 or vector. CFU were counted and imaged 10 days after plating (n=3). […] Cells were treated with S2E (50 μM, Sigma), metformin (1 mM, Sigma) or vehicle following viral infection with PHD3 and throughout the duration of the experiment. Infected cells were selected with puromycin. Following FACS to collect PI-negative cells, 8000 cells were plated per well of a 96-well plate, and cell number at 72 h was determined by cell counting (n=3). […] Colony formation was assessed in MOLM14 cells stably overexpressing vector or PHD3 in the presence or absence of metformin (Met, 1 mM). CFU were counted 8 days after plating (n=2). FIG. 12K, qPCR analysis of PHD3 gene expression in primary human CD34+ cells from bone marrow filtrate of a healthy donor or AML patient samples (690a, 2093 and 2266). PPIA was used as a reference gene. FIG. 12L, ATP CellTiter-Glo analysis of cell viability in AML patient samples following stable overexpression of empty vector or PHD3 (n=4).

Sequence of recombinant PHD3 (Q9H6Z9 whole entry): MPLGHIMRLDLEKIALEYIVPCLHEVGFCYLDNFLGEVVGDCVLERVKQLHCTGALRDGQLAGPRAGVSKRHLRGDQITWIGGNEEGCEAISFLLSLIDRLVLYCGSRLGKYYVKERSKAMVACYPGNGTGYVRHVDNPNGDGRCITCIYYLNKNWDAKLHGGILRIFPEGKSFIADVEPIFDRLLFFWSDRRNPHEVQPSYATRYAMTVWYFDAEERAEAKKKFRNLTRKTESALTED
T1 sequence (O00763 whole entry): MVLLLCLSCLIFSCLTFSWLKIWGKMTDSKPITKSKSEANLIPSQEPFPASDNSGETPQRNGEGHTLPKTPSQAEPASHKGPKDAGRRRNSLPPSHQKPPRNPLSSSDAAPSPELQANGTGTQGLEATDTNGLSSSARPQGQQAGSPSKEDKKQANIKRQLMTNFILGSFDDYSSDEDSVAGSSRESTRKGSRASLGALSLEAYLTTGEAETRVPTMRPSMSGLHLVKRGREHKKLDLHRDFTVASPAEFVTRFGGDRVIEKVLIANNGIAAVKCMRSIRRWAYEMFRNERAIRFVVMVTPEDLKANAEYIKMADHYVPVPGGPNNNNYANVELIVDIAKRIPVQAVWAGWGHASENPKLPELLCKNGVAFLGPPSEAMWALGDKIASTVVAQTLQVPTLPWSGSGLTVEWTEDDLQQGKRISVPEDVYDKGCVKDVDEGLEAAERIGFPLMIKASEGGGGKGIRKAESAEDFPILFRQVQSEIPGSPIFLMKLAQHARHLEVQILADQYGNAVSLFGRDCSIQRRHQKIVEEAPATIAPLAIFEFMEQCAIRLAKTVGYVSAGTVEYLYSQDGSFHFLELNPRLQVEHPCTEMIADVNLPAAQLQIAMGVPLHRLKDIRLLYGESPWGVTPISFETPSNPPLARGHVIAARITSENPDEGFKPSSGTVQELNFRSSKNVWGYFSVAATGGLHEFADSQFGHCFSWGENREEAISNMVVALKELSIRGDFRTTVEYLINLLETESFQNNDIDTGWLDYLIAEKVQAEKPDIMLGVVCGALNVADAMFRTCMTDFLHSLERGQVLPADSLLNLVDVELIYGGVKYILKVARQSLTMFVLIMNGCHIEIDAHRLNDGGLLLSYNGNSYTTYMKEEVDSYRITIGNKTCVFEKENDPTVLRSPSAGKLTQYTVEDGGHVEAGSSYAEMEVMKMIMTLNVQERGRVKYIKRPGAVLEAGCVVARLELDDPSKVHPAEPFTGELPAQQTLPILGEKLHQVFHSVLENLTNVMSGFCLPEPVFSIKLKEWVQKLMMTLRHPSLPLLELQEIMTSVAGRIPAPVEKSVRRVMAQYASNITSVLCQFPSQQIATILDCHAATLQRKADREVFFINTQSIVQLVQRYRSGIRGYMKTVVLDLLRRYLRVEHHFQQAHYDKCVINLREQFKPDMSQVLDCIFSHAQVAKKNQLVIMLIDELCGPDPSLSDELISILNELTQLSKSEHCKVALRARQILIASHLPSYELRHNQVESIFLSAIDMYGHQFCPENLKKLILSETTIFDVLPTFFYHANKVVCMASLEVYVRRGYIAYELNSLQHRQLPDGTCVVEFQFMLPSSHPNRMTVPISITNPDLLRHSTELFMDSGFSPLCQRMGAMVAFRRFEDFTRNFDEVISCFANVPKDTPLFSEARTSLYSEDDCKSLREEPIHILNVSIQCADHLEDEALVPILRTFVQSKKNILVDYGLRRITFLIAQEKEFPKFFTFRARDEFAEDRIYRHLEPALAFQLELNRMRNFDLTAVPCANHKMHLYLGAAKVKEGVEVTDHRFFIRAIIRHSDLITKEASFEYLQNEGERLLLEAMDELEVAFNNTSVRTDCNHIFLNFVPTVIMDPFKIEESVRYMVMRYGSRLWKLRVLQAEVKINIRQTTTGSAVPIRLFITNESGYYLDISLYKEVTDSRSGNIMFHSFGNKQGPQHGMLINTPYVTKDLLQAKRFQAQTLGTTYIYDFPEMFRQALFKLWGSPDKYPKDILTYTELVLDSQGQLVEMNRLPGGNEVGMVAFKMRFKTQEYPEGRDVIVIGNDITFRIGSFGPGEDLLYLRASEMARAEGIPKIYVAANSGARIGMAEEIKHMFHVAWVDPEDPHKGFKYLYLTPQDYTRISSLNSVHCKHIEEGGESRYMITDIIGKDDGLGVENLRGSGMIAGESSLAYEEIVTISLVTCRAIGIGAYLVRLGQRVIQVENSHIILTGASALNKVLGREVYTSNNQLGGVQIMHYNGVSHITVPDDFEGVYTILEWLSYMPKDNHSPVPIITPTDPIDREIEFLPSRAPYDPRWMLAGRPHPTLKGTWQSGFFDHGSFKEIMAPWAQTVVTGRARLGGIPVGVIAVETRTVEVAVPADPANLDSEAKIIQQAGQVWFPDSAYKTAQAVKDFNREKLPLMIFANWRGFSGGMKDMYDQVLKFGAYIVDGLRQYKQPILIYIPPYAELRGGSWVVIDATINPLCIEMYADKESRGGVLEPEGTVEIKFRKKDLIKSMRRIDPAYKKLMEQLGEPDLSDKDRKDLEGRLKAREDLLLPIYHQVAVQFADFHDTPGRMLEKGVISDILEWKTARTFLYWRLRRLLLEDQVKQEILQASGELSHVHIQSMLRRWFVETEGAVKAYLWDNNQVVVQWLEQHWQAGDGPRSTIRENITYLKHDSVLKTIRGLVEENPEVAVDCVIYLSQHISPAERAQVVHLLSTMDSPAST

ACC activity (ACC2): activated
Molecule: O=C(O)CC(O)(CC(=O)O)C(=O)O [citrate]

Molecule: COc1ccccc1OCC(O)CN1CCN(CC(=O)Nc2c(C)cccc2C)CC1 (centres unmarked) [ranolazine]
cell viability (K562 leukemia cells): viability was largely maintained
sensitivity (viability) (MEGO1): less sensitive
cell viability (low-PHD3 leukemia cells): drastically reduced cell viability

Molecule: COC(=O)CCC(=O)C(=O)OC [dimethyl ketoglutarate]
palmitate oxidation (293T cells): repressed palmitate oxidation

Molecule: CCOC(=O)[C@@]1(CCCCCCOc2ccc(Cl)cc2)CO1 [etomoxir]
sensitivity (viability) (KU812): sensitive
cell viability (low-PHD3 leukemia cells): substantial cell death
repression of FAO (palmitate oxidation) (HepG2 cells): over 50%

hydroxylation by recombinant PHD3 (recombinant PHD3): shown to hydroxylate
Molecule: ERIGFPLMIKASEGGGGK [ACC2 peptide containing P450]

hydroxylation by recombinant PHD3 (recombinant PHD3): not
Molecule: AGQVWFPDSAYKTAQ [peptide containing P2131]

hydroxylation by recombinant PHD3 (recombinant PHD3): not
Molecule: ARLELDDPSKVHPAE

Molecule: CC(C)(C)c1ccc(N2C[C@@H](COc3ccc(C(=O)O)cc3)CC2=O)cc1 [S2E]
palmitate oxidation (FAO) (MOLM14 cells [1]): increases palmitate oxidation; also recorded: amplified FAO
cell growth at 72 h (MOLM14 cells [2]): restores cell growth; also recorded: rescued Molm14 cell growth

Molecule: CN(C)C(=N)N=C(N)N [metformin]
cell growth at 72 h (MOLM14 cells [2]): trend toward rescued growth
colony formation (growth) (MOLM14 cells [3]): improved growth; also recorded: partially rescues
colony formation (growth) (MOLM14 cells [3]; listed as Metformin): partially blocks the growth inhibitory effects
cell growth in soft agar (MOLM14 cells [3]; metformin on its own, 1 mM): impaired cell growth
